ChEMBL document CHEMBL3600285, “Inhibitory Effects of Highly Oxygenated Lanostane Derivatives from the Fungus Ganoderma lucidum on P-Glycoprotein and α-Glucosidase” (J Nat Prod, 2015)

Tests used:
[1] = molecular target: ATP-dependent translocase ABCB1 (Homo sapiens, UniProt P08183); experiment: Inhibition of p-glycoprotein in human adriamycin-resistant MCF7 cells assessed as increase of adriamycin accumulation at 20 uM after 1 hr by LC-MS/MS analysis relative to control; type: cell-based; conditions: mcf7, 1 h
ATP-dependent translocase ABCB1, sequence (P08183 whole entry): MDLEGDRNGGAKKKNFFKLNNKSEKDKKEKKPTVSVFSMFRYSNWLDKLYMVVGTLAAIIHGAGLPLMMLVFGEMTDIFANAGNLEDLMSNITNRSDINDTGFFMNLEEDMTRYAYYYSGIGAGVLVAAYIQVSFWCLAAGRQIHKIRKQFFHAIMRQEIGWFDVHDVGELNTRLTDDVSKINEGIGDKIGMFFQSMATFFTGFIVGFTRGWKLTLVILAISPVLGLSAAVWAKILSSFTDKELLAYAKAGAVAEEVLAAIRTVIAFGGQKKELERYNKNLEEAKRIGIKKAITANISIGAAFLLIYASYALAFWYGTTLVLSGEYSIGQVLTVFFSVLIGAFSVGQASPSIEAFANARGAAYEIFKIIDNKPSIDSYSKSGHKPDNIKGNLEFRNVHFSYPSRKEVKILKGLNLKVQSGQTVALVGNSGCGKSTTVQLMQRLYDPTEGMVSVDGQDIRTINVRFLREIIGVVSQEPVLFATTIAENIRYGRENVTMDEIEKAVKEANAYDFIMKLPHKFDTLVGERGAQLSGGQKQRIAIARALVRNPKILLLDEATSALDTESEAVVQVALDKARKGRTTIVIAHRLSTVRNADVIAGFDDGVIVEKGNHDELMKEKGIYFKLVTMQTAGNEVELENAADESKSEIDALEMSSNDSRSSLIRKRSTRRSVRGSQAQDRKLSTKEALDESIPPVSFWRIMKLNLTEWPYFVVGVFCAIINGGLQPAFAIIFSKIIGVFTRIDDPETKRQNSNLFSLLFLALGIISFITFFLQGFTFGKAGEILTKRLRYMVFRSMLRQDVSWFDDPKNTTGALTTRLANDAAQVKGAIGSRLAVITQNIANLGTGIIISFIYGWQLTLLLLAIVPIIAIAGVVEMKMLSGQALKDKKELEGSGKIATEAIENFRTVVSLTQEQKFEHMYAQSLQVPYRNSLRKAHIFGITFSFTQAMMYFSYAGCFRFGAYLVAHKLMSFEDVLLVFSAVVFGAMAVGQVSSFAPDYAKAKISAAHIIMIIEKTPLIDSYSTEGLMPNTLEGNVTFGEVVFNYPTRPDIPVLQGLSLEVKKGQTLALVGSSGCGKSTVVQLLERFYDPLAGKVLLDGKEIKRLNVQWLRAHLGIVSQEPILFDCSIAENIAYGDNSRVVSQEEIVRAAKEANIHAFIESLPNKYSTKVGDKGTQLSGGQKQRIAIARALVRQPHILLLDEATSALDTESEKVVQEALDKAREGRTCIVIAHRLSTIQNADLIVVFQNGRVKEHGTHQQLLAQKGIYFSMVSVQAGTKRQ

[2] = molecular target: Alpha-glucosidase MAL12 (Saccharomyces cerevisiae S288c, UniProt P53341); experiment: Inhibition of yeast alpha-glucosidase using p-NPG as substrate
Alpha-glucosidase MAL12, sequence (P53341 whole entry): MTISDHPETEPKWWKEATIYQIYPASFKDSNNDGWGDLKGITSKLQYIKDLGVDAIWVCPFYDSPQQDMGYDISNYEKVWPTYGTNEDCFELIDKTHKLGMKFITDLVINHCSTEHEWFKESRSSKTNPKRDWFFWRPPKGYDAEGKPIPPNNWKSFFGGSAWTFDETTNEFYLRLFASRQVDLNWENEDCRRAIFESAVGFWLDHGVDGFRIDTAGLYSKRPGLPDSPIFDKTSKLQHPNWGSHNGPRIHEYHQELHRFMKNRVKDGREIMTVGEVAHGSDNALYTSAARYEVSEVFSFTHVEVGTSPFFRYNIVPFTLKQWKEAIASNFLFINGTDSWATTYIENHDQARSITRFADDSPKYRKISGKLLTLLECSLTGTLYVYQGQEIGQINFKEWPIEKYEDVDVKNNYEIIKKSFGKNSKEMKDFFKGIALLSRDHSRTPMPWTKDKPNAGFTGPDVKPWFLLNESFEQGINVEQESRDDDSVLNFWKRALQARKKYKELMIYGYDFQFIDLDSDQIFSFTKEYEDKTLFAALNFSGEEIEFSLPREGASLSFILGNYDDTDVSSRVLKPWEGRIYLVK

| Structure (SMILES) | Ratio [1] | IC50 [2] |
| --- | --- | --- |
| C/C(=C\CC[C@@H](C)[C@H]1CC[C@@]2(C)C3=C([C@@H](O)C[C@]12C)[C@@]1(C)CCC(=O)C(C)(C)[C@@H]1CC3=O)C(=O)O | 3 | 119 µM |
| CC1(C)C(=O)CC[C@]2(C)C3=C([C@@H](O)C[C@@H]12)[C@]1(C)C(=O)C[C@H]([C@]2(C)CCC(=O)O2)[C@@]1(C)[C@@H](O)C3=O | 3 |  |
| CC1(C)[C@@H](O)CC[C@]2(C)C3=C([C@@H](O)C[C@@H]12)[C@]1(C)C(=O)C[C@H]([C@]2(C)CCC(=O)O2)[C@@]1(C)[C@H](O)C3=O |  | 41.7 µM |
| CC1(C)[C@@H](O)CC[C@]2(C)C3=C([C@@H](O)C[C@@H]12)[C@]1(C)C(=O)C[C@H]([C@]2(C)CCC(=O)O2)[C@@]1(C)C(=O)C3=O | 3 | 91.3 µM |
| C[C@H](C(=O)O)[C@H]1CC(=O)[C@@]2(C)C3=C(C(=O)C[C@]12C)[C@@]1(C)CCC(=O)C(C)(C)[C@@H]1CC3=O |  | 145 µM |
| CC1(C)C(=O)CC[C@]2(C)C3=C(C(=O)C[C@@H]12)[C@]1(C)C(=O)C[C@H]([C@]2(C)CCC(=O)O2)[C@@]1(C)CC3=O |  | 81.8 µM |
| COc1ccc(CCN(C)CCCC(C#N)(c2ccc(OC)c(OC)c2)C(C)C)cc1OC (stereo not given) | 3 |  |
| COC(=O)CC[C@@H](C)[C@H]1CC(=O)[C@@]2(C)C3=C(C(=O)C[C@]12C)[C@@]1(C)CCC(=O)C(C)(C)[C@@H]1CC3=O [METHYL LUCIDENATE F] | 3 |  |
